Test results from PMC5218480 (PLoS ONE, 2017).

Tested on: MV-4-11 cells
Assay: Gene expression microarray analysis (Affymetrix PrimeView) and GSEA
Format: cell-based, human
Parameters: RFU PODN (11730768_x_at) / Fold change /veh PODN (11730768_x_at) / RFU LINC00158 (11744669_a_at) / Fold change /veh LINC00158 (11744669_a_at) / RFU DUSP10 (11751237_a_at) / Fold change /veh DUSP10 (11751237_a_at) / RFU ID3 (11757404_x_at) / Fold change /veh ID3 (11757404_x_at) / RFU PLEKHG5 (11737974_s_at) / Fold change /veh PLEKHG5 (11737974_s_at) / RFU LRRC4B (11730491_at) / Fold change /veh LRRC4B (11730491_at) / RFU GIMAP4 (11747438_a_at) / Fold change /veh GIMAP4 (11747438_a_at) / RFU KRT8 (11758183_x_at) / Fold change /veh KRT8 (11758183_x_at) / RFU CNN1 (11734310_a_at) / Fold change /veh CNN1 (11734310_a_at) / RFU VPS37D (11726825_at) / Fold change /veh VPS37D (11726825_at) / RFU C10orf10 (11716522_x_at) / Fold change /veh C10orf10 (11716522_x_at) / RFU KIR2DL2 /// KIR2DL4 /// KIR2DL5A /// KIR2DL5B /// KIR2DS1 /// KIR2DS2 /// KIR2DS3 /// KIR2DS4 /// KIR3DL3 /// KIR3DL3 /// KIR3DS1 (11738374_at) / Fold change /veh KIR2DL2 /// KIR2DL4 /// KIR2DL5A /// KIR2DL5B /// KIR2DS1 /// KIR2DS2 /// KIR2DS3 /// KIR2DS4 /// KIR3DL3 /// KIR3DL3 /// KIR3DS1 (11738374_at) / RFU C1QL1 (11718748_at) / Fold change /veh C1QL1 (11718748_at) / RFU TMPRSS4 (11747572_a_at) / Fold change /veh TMPRSS4 (11747572_a_at) / RFU HAMP (11756126_x_at) / Fold change /veh HAMP (11756126_x_at) / RFU RNFT2 (11725882_a_at) / Fold change /veh RNFT2 (11725882_a_at) / RFU NR4A2 (11747474_a_at) / Fold change /veh NR4A2 (11747474_a_at) / RFU ABCC12 (11746883_a_at) / Fold change /veh ABCC12 (11746883_a_at) / RFU TMEM136 (11760407_x_at) / Fold change /veh TMEM136 (11760407_x_at) / RFU CLDN22 /// WWC2 (11732394_at) / Fold change /veh CLDN22 /// WWC2 (11732394_at) / RFU HLA-DPB1 (11760878_x_at) / Fold change /veh HLA-DPB1 (11760878_x_at) / RFU SPINT1 (11716480_a_at) / Fold change /veh SPINT1 (11716480_a_at) / RFU GAP43 (11754022_s_at) / Fold change /veh GAP43 (11754022_s_at) / RFU A4GNT (11735810_at) / Fold change /veh A4GNT (11735810_at) / RFU PRB3 (11715151_x_at) / Fold change /veh PRB3 (11715151_x_at) / RFU TUBB4B (11761932_at) / Fold change /veh TUBB4B (11761932_at) / RFU CAPN14 (11732068_a_at) / Fold change /veh CAPN14 (11732068_a_at) / RFU TMCC2 (11721928_a_at) / Fold change /veh TMCC2 (11721928_a_at) / RFU IRGQ (11745062_a_at) / Fold change /veh IRGQ (11745062_a_at) / RFU FAM174B (11720279_a_at) / Fold change /veh FAM174B (11720279_a_at) / RFU TMPRSS4 (11748680_a_at) / Fold change /veh TMPRSS4 (11748680_a_at) / RFU FAM212B (11763350_a_at) / Fold change /veh FAM212B (11763350_a_at) / RFU PLEKHG5 (11743358_a_at) / Fold change /veh PLEKHG5 (11743358_a_at) / RFU ZSCAN30 (11745921_a_at) / Fold change /veh ZSCAN30 (11745921_a_at) / RFU CMKLR1 (11741424_a_at) / Fold change /veh CMKLR1 (11741424_a_at) / RFU LOC101060620 /// MAPK8IP1 (11723275_at) / Fold change /veh LOC101060620 /// MAPK8IP1 (11723275_at) / RFU SPTSSB (11747773_x_at) / Fold change /veh SPTSSB (11747773_x_at) / RFU PRSS12 (11739890_at) / Fold change /veh PRSS12 (11739890_at) / RFU BIN1 (11741810_x_at) / Fold change /veh BIN1 (11741810_x_at) / RFU WNT11 (11732464_a_at) / Fold change /veh WNT11 (11732464_a_at) / RFU C10orf10 (11716521_a_at) / Fold change /veh C10orf10 (11716521_a_at) / RFU C5orf56 (11738089_at) / Fold change /veh C5orf56 (11738089_at) / RFU CYB561 (11721691_x_at) / Fold change /veh CYB561 (11721691_x_at) / RFU ANKRD19P (11752326_a_at) / Fold change /veh ANKRD19P (11752326_a_at) / RFU OR2T12 /// OR2T33 /// OR2T8 (11738714_s_at) / Fold change /veh OR2T12 /// OR2T33 /// OR2T8 (11738714_s_at) / RFU VCAN (11748164_a_at) / Fold change /veh VCAN (11748164_a_at) / RFU JSRP1 (11732532_at) / Fold change /veh JSRP1 (11732532_at) / RFU KRTAP10-11 (11738290_x_at) / Fold change /veh KRTAP10-11 (11738290_x_at) / RFU MYO3A (11730013_a_at) / Fold change /veh MYO3A (11730013_a_at) / RFU EBF3 (11725865_a_at) / Fold change /veh EBF3 (11725865_a_at) / RFU CAMK2N1 (11719241_x_at) / Fold change /veh CAMK2N1 (11719241_x_at) / RFU C5orf56 (11738088_a_at) / Fold change /veh C5orf56 (11738088_a_at) / RFU OLFML3 (11715873_a_at) / Fold change /veh OLFML3 (11715873_a_at) / RFU LOC100653217 /// NTM (11731650_a_at) / Fold change /veh LOC100653217 /// NTM (11731650_a_at) / RFU MAPK11 (11762145_a_at) / Fold change /veh MAPK11 (11762145_a_at) / RFU FIZ1 (11724087_x_at) / Fold change /veh FIZ1 (11724087_x_at) / RFU OASL (11726364_x_at) / Fold change /veh OASL (11726364_x_at) / RFU SOX15 (11748057_x_at) / Fold change /veh SOX15 (11748057_x_at) / RFU CD79A (11719716_a_at) / Fold change /veh CD79A (11719716_a_at) / RFU HIST1H1D (11736915_at) / Fold change /veh HIST1H1D (11736915_at) / RFU CASKIN2 (11723855_a_at) / Fold change /veh CASKIN2 (11723855_a_at) / RFU LOC730098 (11760151_x_at) / Fold change /veh LOC730098 (11760151_x_at) / RFU OR4N2 (11742367_at) / Fold change /veh OR4N2 (11742367_at) / RFU PRRT2 (11749266_a_at) / Fold change /veh PRRT2 (11749266_a_at) / RFU SNX32 (11753110_a_at) / Fold change /veh SNX32 (11753110_a_at) / RFU CDHR5 (11726645_a_at) / Fold change /veh CDHR5 (11726645_a_at) / RFU RCAN1 (11760418_a_at) / Fold change /veh RCAN1 (11760418_a_at) / RFU FAM167A (11723789_a_at) / Fold change /veh FAM167A (11723789_a_at) / RFU FAM26E (11764081_at) / Fold change /veh FAM26E (11764081_at) / RFU ISYNA1 (11749810_s_at) / Fold change /veh ISYNA1 (11749810_s_at) / RFU ACY1 (11761880_at) / Fold change /veh ACY1 (11761880_at) / RFU 11764098_at / Fold change /veh 11764098_at / RFU SAMD14 (11745864_x_at) / Fold change /veh SAMD14 (11745864_x_at) / RFU NPB (11741838_a_at) / Fold change /veh NPB (11741838_a_at) / RFU TMPRSS6 (11731388_a_at) / Fold change /veh TMPRSS6 (11731388_a_at) / RFU KRTAP10-2 (11738614_at) / Fold change /veh KRTAP10-2 (11738614_at) / RFU ARHGAP8 /// PRR5-ARHGAP8 (11727945_x_at) / Fold change /veh ARHGAP8 /// PRR5-ARHGAP8 (11727945_x_at) / RFU KRTAP5-7 /// NADSYN1 (11734609_at) / Fold change /veh KRTAP5-7 /// NADSYN1 (11734609_at) / RFU RASL12 (11751679_a_at) / Fold change /veh RASL12 (11751679_a_at) / RFU CDKN2B (11736163_a_at) / Fold change /veh CDKN2B (11736163_a_at) / RFU PRF1 (11729649_at) / Fold change /veh PRF1 (11729649_at) / RFU, ZNF638 /// ZNF638-IT1 / Fold change vs veh, ZNF638 /// ZNF638-IT1 / RFU, PANK3 / Fold change vs veh, PANK3 / RFU, SH3YL1 / Fold change vs veh, SH3YL1 / RFU, ZEB2 / Fold change vs veh, ZEB2 / RFU, NRIP1 / Fold change vs veh, NRIP1 / RFU, PTTG1IP / Fold change vs veh, PTTG1IP / RFU, CAPN2 / Fold change vs veh, CAPN2 / RFU, MED14 / Fold change vs veh, MED14 / RFU, SNORA58 / Fold change vs veh, SNORA58 / RFU, C1orf63 / Fold change vs veh, C1orf63 / RFU, LRRFIP1 / Fold change vs veh, LRRFIP1 / RFU, NDUFAF7 / Fold change vs veh, NDUFAF7 / RFU, SLC12A2 / Fold change vs veh, SLC12A2 / RFU, IBTK / Fold change vs veh, IBTK / RFU, ESF1 / Fold change vs veh, ESF1 / Fold change vs veh, TMEM50B / RFU, TAOK1 / Fold change vs veh, TAOK1 / RFU, ACBD3 / Fold change vs veh, ACBD3 / RFU, TMA16 / Fold change vs veh, TMA16 / RFU, RWDD3 / Fold change vs veh, RWDD3 / RFU, BCAT1 / Fold change vs veh, BCAT1 / RFU, EDEM3 / Fold change vs veh, EDEM3 / RFU, TMEM33 / Fold change vs veh, TMEM33 / RFU, WDR75 / Fold change vs veh, WDR75 / RFU, AHCTF1 / Fold change vs veh, AHCTF1 / RFU, TFRC / Fold change vs veh, TFRC / RFU, ZDHHC17 / Fold change vs veh, ZDHHC17 / RFU, NOM1 / Fold change vs veh, NOM1 / RFU, ARL8B / Fold change vs veh, ARL8B / RFU, ZBTB11 / Fold change vs veh, ZBTB11 / RFU, TAMM41 / Fold change vs veh, TAMM41 / RFU, KIAA1704 /// LOC100996395 / Fold change vs veh, KIAA1704 /// LOC100996395 / RFU, ING1 / Fold change vs veh, ING1 / RFU, TRMT61B / Fold change vs veh, TRMT61B / RFU, FUBP3 / Fold change vs veh, FUBP3 / RFU, TP53 / Fold change vs veh, TP53 / RFU, TNKS2 / Fold change vs veh, TNKS2 / RFU, ZFP14 / Fold change vs veh, ZFP14 / RFU, ACTR2 / Fold change vs veh, ACTR2 / RFU, PPP3R1 / Fold change vs veh, PPP3R1 / RFU, PIK3R1 / Fold change vs veh, PIK3R1 / RFU, HNRNPA1 / Fold change vs veh, HNRNPA1 / RFU, RNF170 / Fold change vs veh, RNF170 / RFU, ZNF28 / Fold change vs veh, ZNF28 / RFU, RNGTT / Fold change vs veh, RNGTT / RFU, OGT / Fold change vs veh, OGT / RFU, BRD1 / Fold change vs veh, BRD1 / RFU, MARS / Fold change vs veh, MARS / RFU, ZNF655 / Fold change vs veh, ZNF655 / RFU, FAHD1 / Fold change vs veh, FAHD1 / RFU, BDP1 / Fold change vs veh, BDP1 / RFU, LRRCC1 / Fold change vs veh, LRRCC1 / RFU, ARID1A / Fold change vs veh, ARID1A / RFU, ZNF146 / Fold change vs veh, ZNF146 / RFU, ZNF330 / Fold change vs veh, ZNF330 / RFU, GPN3 / Fold change vs veh, GPN3 / RFU, C9orf123 / Fold change vs veh, C9orf123 / RFU, N4BP2L2 / Fold change vs veh, N4BP2L2 / RFU, ARFIP1 / Fold change vs veh, ARFIP1 / RFU, FAM179B / Fold change vs veh, FAM179B / RFU, BCL10 / Fold change vs veh, BCL10 / RFU, UHRF1BP1L / Fold change vs veh, UHRF1BP1L / RFU, BET1 / Fold change vs veh, BET1 / RFU, CNOT2 / Fold change vs veh, CNOT2 / RFU, ZNF268 / Fold change vs veh, ZNF268 / Fold change vs veh, ZNF507 / RFU, DGCR2 / Fold change vs veh, DGCR2 / RFU, WDSUB1 / Fold change vs veh, WDSUB1 / Fold change vs veh, HSP90B1 /// MIR3652 / RFU, ADSS / Fold change vs veh, ADSS / RFU, GK / Fold change vs veh, GK / RFU, ZNF148 / Fold change vs veh, ZNF148 / RFU, TAF9 / Fold change vs veh, TAF9 / RFU, SLC1A5 / Fold change vs veh, SLC1A5 / RFU, SLMO2 / Fold change vs veh, SLMO2 / RFU, ABCC4 / Fold change vs veh, ABCC4 / RFU, LOC101060439 /// RAP1B / Fold change vs veh, LOC101060439 /// RAP1B / RFU, RFX7 / Fold change vs veh, RFX7 / RFU, GTPBP10 / Fold change vs veh, GTPBP10 / RFU, CNEP1R1 / Fold change vs veh, CNEP1R1 / RFU, BIVM-ERCC5 /// ERCC5 / Fold change vs veh, BIVM-ERCC5 /// ERCC5 / RFU, ILF3 / Fold change vs veh, ILF3 / RFU 11762660_at / Fold change /veh 11762660_at / RFU VCAN (11757783_s_at) / Fold change /veh VCAN (11757783_s_at) / RFU DDX43 (11728927_at) / Fold change /veh DDX43 (11728927_at) / RFU KRT8 (11758188_x_at) / Fold change /veh KRT8 (11758188_x_at) / RFU NKD1 (11759106_at) / Fold change /veh NKD1 (11759106_at) / RFU SRD5A1 (11742802_a_at) / Fold change /veh SRD5A1 (11742802_a_at) / RFU TPSAB1 /// TPSB2 (11721975_s_at) / Fold change /veh TPSAB1 /// TPSB2 (11721975_s_at) / RFU GSTM3 (11746129_a_at) / Fold change /veh GSTM3 (11746129_a_at) / RFU IL23R (11737362_x_at) / Fold change /veh IL23R (11737362_x_at) / RFU TMEM51 (11727254_a_at) / Fold change /veh TMEM51 (11727254_a_at) / RFU PIWIL2 (11732686_x_at) / Fold change /veh PIWIL2 (11732686_x_at) / RFU ORM1 (11744905_x_at) / Fold change /veh ORM1 (11744905_x_at) / RFU CCDC152 (11743942_at) / Fold change /veh CCDC152 (11743942_at) / RFU ECM1 (11717891_a_at) / Fold change /veh ECM1 (11717891_a_at) / RFU IL23R (11748794_a_at) / Fold change /veh IL23R (11748794_a_at) / RFU TNFAIP8L3 (11732012_x_at) / Fold change /veh TNFAIP8L3 (11732012_x_at) / RFU MBOAT4 (11741988_at) / Fold change /veh MBOAT4 (11741988_at) / RFU 11764193_at / Fold change /veh 11764193_at / RFU TMEM53 (11763286_at) / Fold change /veh TMEM53 (11763286_at) / RFU MAGEB2 (11727129_at) / Fold change /veh MAGEB2 (11727129_at) / RFU TMEM200A (11744735_a_at) / Fold change /veh TMEM200A (11744735_a_at) / RFU CCDC152 (11751479_a_at) / Fold change /veh CCDC152 (11751479_a_at) / RFU FAM211A (11726209_a_at) / Fold change /veh FAM211A (11726209_a_at) / RFU RGS16 (11746705_a_at) / Fold change /veh RGS16 (11746705_a_at) / RFU VCAN (11755009_s_at) / Fold change /veh VCAN (11755009_s_at) / RFU RHOB (11743442_s_at) / Fold change /veh RHOB (11743442_s_at) / RFU RGS16 (11720943_a_at) / Fold change /veh RGS16 (11720943_a_at) / RFU RGS16 (11720944_at) / Fold change /veh RGS16 (11720944_at) / RFU, VPS4B / Fold change vs veh, VPS4B / RFU, CREB1 / Fold change vs veh, CREB1 / RFU, DNAJC13 / Fold change vs veh, DNAJC13 / RFU, GNAQ / Fold change vs veh, GNAQ / RFU, CDK5R1 / Fold change vs veh, CDK5R1 / RFU, ZRANB3 / Fold change vs veh, ZRANB3 / RFU, CUL4A / Fold change vs veh, CUL4A / RFU, CCNY / Fold change vs veh, CCNY / RFU, UFL1 / Fold change vs veh, UFL1 / RFU, COG3 / Fold change vs veh, COG3 / RFU, DIAPH2 / Fold change vs veh, DIAPH2 / RFU, SKA2 / Fold change vs veh, SKA2 / RFU, AFF3 / Fold change vs veh, AFF3 / RFU, LMF1 / Fold change vs veh, LMF1 / RFU, IPO11 / Fold change vs veh, IPO11 / RFU, DFFB / Fold change vs veh, DFFB / RFU, FOXP1 / Fold change vs veh, FOXP1 / RFU, CARD8 / Fold change vs veh, CARD8 / RFU, STRN3 / Fold change vs veh, STRN3 / RFU, ADK / Fold change vs veh, ADK / RFU, RASSF2 / Fold change vs veh, RASSF2 / RFU, WIPF1 / Fold change vs veh, WIPF1 / RFU, LARP1B / Fold change vs veh, LARP1B / RFU, RASA1 / Fold change vs veh, RASA1 / RFU, RB1 / Fold change vs veh, RB1 / RFU, PPFIA1 / Fold change vs veh, PPFIA1 / RFU, MAT2A / Fold change vs veh, MAT2A / RFU, CCT5 / Fold change vs veh, CCT5 / RFU, WDR92 / Fold change vs veh, WDR92 / RFU, CUX1 / Fold change vs veh, CUX1 / RFU, TTC7A / Fold change vs veh, TTC7A / RFU, TMEM135 / Fold change vs veh, TMEM135 / RFU, DEPTOR / Fold change vs veh, DEPTOR / RFU, CPM / Fold change vs veh, CPM / RFU, DNAJB6 / Fold change vs veh, DNAJB6 / RFU, CACNA2D3 / Fold change vs veh, CACNA2D3 / RFU, DTX4 / Fold change vs veh, DTX4 / RFU, TFCP2 / Fold change vs veh, TFCP2 / RFU, GMCL1 /// GMCL1P1 / Fold change vs veh, GMCL1 /// GMCL1P1 / RFU, AEBP2 / Fold change vs veh, AEBP2 / RFU, SNHG1 /// SNORD22 /// SNORD25 /// SNORD26 /// SNORD27 /// SNORD28 /// SNORD29 /// SNORD31 / Fold change vs veh, SNHG1 /// SNORD22 /// SNORD25 /// SNORD26 /// SNORD27 /// SNORD28 /// SNORD29 /// SNORD31 / Fold change (Aza/veh), C12orf56 (ProbeSet 11735607_a_at) / Fold change (ACY-1035/veh), C12orf56 (ProbeSet 11735607_a_at) / Fold change (Aza/veh), FGFR1OP (ProbeSet 11751329_s_at) / Fold change (ACY-1035/veh), FGFR1OP (ProbeSet 11751329_s_at) / Fold change (Aza/veh), VPS36 (ProbeSet 11739960_a_at) / Fold change (ACY-1035/veh), VPS36 (ProbeSet 11739960_a_at) / RFU SYPL1 (11715823_x_at) / Fold change /veh SYPL1 (11715823_x_at) / RFU IGFBP7 (11715501_s_at) / Fold change /veh IGFBP7 (11715501_s_at) / RFU REEP3 (11722064_at) / Fold change /veh REEP3 (11722064_at) / RFU IGLL1 (11728026_x_at) / Fold change /veh IGLL1 (11728026_x_at): dose or concentration left out as unconfirmed
Details: MV-4-11 cells, 48 hours

Nc1ccc(-c2cccs2)cc1NC(=O)c1ccc2c(c1)cc(C1CC1)n2CCN1CCOCC1 [ACY-1035]
Fold change /veh TMEM200A (11744735_a_at): 1.19
